# Columns and labels:
# [1] = system: FR-positive KB tumor cells; experiment: Uptake and internalization of 177Lu-RedFols in KB tumor cells; type: cell-based, human; details: 4 h incubation, percent of total added activity
# Experimental: The KB cells (a human cervical carcinoma cell line, subclone of HeLa cells, ACC-136) were purchased from the German Collection of Microorganisms and Cell Cultures (DSMZ, Germany). The tumor cells were cultured in folate-deficient RPMI medium (FFRPMI, Cell Culture Technologies GmbH, Gravesano, Switzerland) supplemented with 10% fetal calf serum, […] and antibiotics.
# The experiments to investigate the uptake and internalization of ^177Lu-RedFols (50 MBq/nmol) were performed according to a previously established protocol (Supplementary Materials Section S9). The results were presented as a percentage of total added activity and listed as the average ± SD of 3–6 independent experiments, each performed in triplicates. The data were analyzed for statistical significance using a one-way ANOVA with Tukey’s post-comparison test (GraphPad Prism software version 8) considering a p-value < 0.05 as statistically significant. […]
# S8. Radiolabeling and Radiolytic Stability of Folate Radioconjugates
# Purpose: RedFols were labeled with lutetium-177 and assessed for their in vitro sta- […]
# Methods: Folate conjugates were dissolved in Milli-Q water containing 4–6% sodium ascorbate (0.5 M) to obtain a final concentration of 1 mM. Radiolabeling of the RedFols with lutetium-177 (no-carrier-added, in 0.04 M HCl; ITM Medical Isotopes GmbH, Mu-nich, Germany) was performed using a mixture of sodium acetate (0.5 M) and HCl (0.05 M) at pH ~4.5 in the presence of L-ascorbic acid (6 mg) as previously reported for […]
# RedFol-1 (6R and 6S). […]
# S9. Uptake and Internalization of 177Lu-RedFols
# Purpose: Uptake and internalization studies were performed with all folate radiocon-jugates using folate receptor (FR)-positive KB tumor cells.
# Methods: The experiments were performed as previously reported. KB tumor cells (human cervical cancer cell line, ACC-136) were seeded into poly-lysine-coated 12-well plates (0.5 × 10^6 cells in 2 mL per well) using folate-free RPMI (FFRPMI) medium supplemented with 10% fetal calf serum, glutamine and antibiotics. The tumor cells were incubated overnight to allow adhesion and growth at 37 °C and 5% CO2. After removal of the supernatant, the KB cells were rinsed with PBS prior to the addition of FFRPMI me-dium without supplements (975 µL/well). The folate radioconjugates (50 MBq/nmol) were added to each well in a volume of 25 µL (0.75 pmol, 38 kBq). In some wells, KB tumor cells were co-incubated with excess folic acid (100 µM) to block the FRs on the cell surface.
# After incubation of the well plates for 2 h or 4 h at 37 °C and 5% CO2, the KB tumor cells were rinsed three times with ice-cold PBS to determine the total uptake of the folate radi-oconjugates. In order to assess the internalized fraction, a stripping buffer (aqueous solu-tion of 0.1 M acetic acid and 0.15 M NaCl, pH 3) was applied to release FR-bound folate radioconjugates from the cell surface. Cell samples were lysed by addition of NaOH solu-tion (1 M, 1 mL) to each well. The cell lysates were counted for activity in a γ-counter (Perkin Elmer, Wallac Wizard 1480, Waltham, MA, USA). The protein concentrations of […]
# each sample were determined using a Micro BCA Protein Assay kit (Pierce, Thermo Sci-entific) in order to standardize the measured activity to the average content of protein in […]
# Results: The results are presented in the main article and in Figure S1.
# Figure S1. Uptake and internalization of folate radioconjugates in KB tumor cells after an incubation period of 2 h and 4 h at 37°C. (A) Uptake of the folate radioconjugates in KB tumor cells. (B) Inter-nalized fraction of folate radioconjugates in KB tumor cells. The data are expressed as average ± SD […]
# S10. FR-binding Affinity (KD Values) of 177Lu-RedFols
# Purpose: The folate radioconjugates were investigated in vitro in order to determine their FR-binding affinities (KD values).
# Methods: The determination of the KD values was performed as previously reported […]
# [2] = biological target: human serum albumin (HSA) in human plasma (Homo sapiens, UniProt P02768); experiment: Ultrafiltration albumin-binding assay of 177Lu-RedFols, human plasma; details: for Relative albumin-binding affinity: human blood plasma, inverse B50 ratio, normalized to the respective (6R or 6S) RedFol-1, set as 1.0; for Albumin-bound fraction: undiluted human blood plasma
# Sequence of human serum albumin (HSA) in human plasma (P02768 25-609): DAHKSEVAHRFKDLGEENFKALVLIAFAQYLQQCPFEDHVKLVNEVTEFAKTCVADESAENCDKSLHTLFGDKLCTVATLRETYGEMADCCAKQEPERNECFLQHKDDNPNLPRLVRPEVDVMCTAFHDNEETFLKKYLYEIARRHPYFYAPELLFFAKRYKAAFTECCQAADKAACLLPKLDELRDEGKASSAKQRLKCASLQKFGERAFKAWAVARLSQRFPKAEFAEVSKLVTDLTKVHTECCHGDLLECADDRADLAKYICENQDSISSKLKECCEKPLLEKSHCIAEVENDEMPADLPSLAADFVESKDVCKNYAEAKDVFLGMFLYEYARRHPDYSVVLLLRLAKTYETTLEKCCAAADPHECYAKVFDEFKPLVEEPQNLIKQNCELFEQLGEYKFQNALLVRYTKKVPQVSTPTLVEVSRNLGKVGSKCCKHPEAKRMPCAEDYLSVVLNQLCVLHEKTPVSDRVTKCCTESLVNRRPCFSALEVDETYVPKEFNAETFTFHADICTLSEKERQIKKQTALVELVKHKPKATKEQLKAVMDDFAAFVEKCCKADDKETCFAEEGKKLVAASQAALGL
# Experimental: An ultrafiltration method was applied according to a previously published procedure (Supplementary Materials Section S11) that was different from the one reported for the ^177Lu-DOTA-ALBs to prevent non-specific binding to the filter units. Briefly, the albumin-bound fraction was determined at different molar concentration ratios of serum albumin relative to the ^177Lu-labeled RedFols using a blood plasma/PBS dilution series and constant amounts of the respective ^177Lu-labeled folate conjugate (0.3 MBq; 0.006 nmol). The albumin-bound fraction was separated from the free (albumin-unbound) fraction of each sample using Amicon centrifugal filters (cut-off of 10 kDa; Merck Millipore, Carrigtwohill, Ireland). The inserts of the filter devices were inverted and centrifuged to recover the albumin-bound fraction, whereas filter-bound activity was considered as free (albumin-unbound) folate radioconjugate. The activity of the different fractions was measured using a γ-counter (Perkin Elmer, Wallac Wizard 1480, Waltham, MA, USA), and the proportion of albumin-bound radioconjugate was set in relation to the total activity measured. The data were analyzed in analogy to those of ^177Lu-DOTA-ALBs (Section 2.1.3). The relative albumin-binding affinity was assessed by calculating the inverse ratio of the B50 value of each 6R-5-MTHF-based folate radioconjugate to the B50 value of [^177Lu]Lu-6R-RedFol-1 (set as 1.0) and of each 6S-5-MTHF-based folate radioconjugate to the B50 value of [^177Lu]Lu-6S-RedFol-1 (set as 1.0). The results were presented as average ± SD of n = 3 independent experiments. […]
# S11. Relative Albumin-Binding Properties of 177Lu-RedFols
# Purpose: The affinity of the folate radioconjugates to serum albumin in mouse and human blood plasma was determined and compared.
# Methods: The albumin-binding affinity of the 177Lu-RedFols was assessed using mouse plasma (Rockland Immunochemicals, Inc., Pottstown, PA, USA, Lot N: 32321; MSA: ⁓550 µM) and human plasma (Stiftung Blutspende SRK Aargau-Solothurn, Aarau, Switzerland; HSA: ⁓800 µM), respectively. An ultrafiltration method was applied accord-ing to a previously published procedure that was different from the one reported for the 177Lu-DOTA-ALBs to avoid non-specific binding to the filter units.
# The folate radioconjugates (50 MBq/nmol, ~300 kBq, 6 pmol in 15 µL) were added to samples of mouse and human blood plasma (150 µL), followed by incubation of the sam-ples at 37 °C for 30 min. The samples were loaded on Amicon centrifugal filters (cut-off of 10 kDa; Merck Millipore, Carrigtwohill, Ireland) followed by centrifugation (14000 rcf, 30 min, 4 °C) to allow the separation of the serum albumin-bound from the free (albumin-unbound) fractions of each sample. The inserts of the filter devices were inverted and centrifuged at 200 rcf for 3 min to recover the albumin-bound fraction. The activity of the albumin-bound fraction as well as the activity in the filtrate and in the filter unit were measured separately in a γ-counter (Perkin Elmer, Wallac Wizard 1480, Waltham, MA, USA). The percentage of radioconjugate bound to mouse and human albumin, respec-
Structure (SMILES),Cell-Internalized Fraction [1] [%],Total Cell Uptake [1] [%],Relative albumin-binding affinity [2],Albumin-bound fraction [2] [%]
"CN1c2c(nc(N)[nH]c2=O)NC[C@H]1CNc1ccc(C(=O)N[C@@H](CCC(=O)N[C@@H](CCCCNC(=O)CN2CCN(CC(=O)O)CCN(CC(=O)O)CCN(CC(=O)O)CC2)C(=O)N[C@@H](CCCCNC(=O)c2ccc(CNC(=O)CCCc3ccc(I)cc3)cc2)C(=O)O)C(=O)O)cc1 [[^177Lu]Lu-6R-RedFol-3, metal not drawn]",19 ± 8,39 ± 14,1.1,97
CN1c2c(nc(N)[nH]c2=O)NCC1CNc1ccc(C(=O)NC(CCC(=O)NC(CCCCNC(=O)CN2CCN(CC(=O)[O-])CCN(CC(=O)[O-])CCN(CC(=O)[O-])CC2)C(=O)NC(CCCCNC(=O)CCCc2ccc(I)cc2)C(=O)O)C(=O)O)cc1.[177Lu+3] (stereo not drawn) [[^177Lu]Lu-6S-RedFol-1],18 ± 1,62 ± 6,1.0,98
"CN1c2c(nc(N)[nH]c2=O)NC[C@H]1CNc1ccc(C(=O)N[C@@H](CCC(=O)N[C@@H](CCCCNC(=O)CN2CCN(CC(=O)O)CCN(CC(=O)O)CCN(CC(=O)O)CC2)C(=O)N[C@@H](CCCCNC(=O)CCCc2ccc(I)cc2)C(=O)O)C(=O)O)cc1 [[^177Lu]Lu-6R-RedFol-1, metal not drawn]",12 ± 2,49 ± 11,1.0,98
"CN1c2c(nc(N)[nH]c2=O)NC[C@H]1CNc1ccc(C(=O)N[C@@H](CCC(=O)N[C@@H](CCCCNC(=O)CN2CCN(CC(=O)O)CCN(CC(=O)O)CCN(CC(=O)O)CC2)C(=O)N[C@@H](CCCCNC(=O)CCCCc2ccc(I)cc2)C(=O)O)C(=O)O)cc1 [[^177Lu]Lu-6R-RedFol-24, metal not drawn]",15 ± 1,40 ± 6,0.5,94
CN1c2c(nc(N)[nH]c2=O)NCC1CNc1ccc(C(=O)NC(CCC(=O)NC(CCCCNC(=O)CN2CCN(CC(=O)[O-])CCN(CC(=O)[O-])CCN(CC(=O)[O-])CC2)C(=O)NC(CCCCNC(=O)c2ccc(CNC(=O)CCCCc3ccc(I)cc3)cc2)C(=O)O)C(=O)O)cc1.[177Lu+3] (stereo not drawn) [[^177Lu]Lu-6S-RedFol-25],31 ± 3,55 ± 5,0.2,91
"CN1c2c(nc(N)[nH]c2=O)NC[C@H]1CNc1ccc(C(=O)N[C@@H](CCC(=O)N[C@@H](CCCCNC(=O)CN2CCN(CC(=O)O)CCN(CC(=O)O)CCN(CC(=O)O)CC2)C(=O)N[C@@H](CCCCNC(=O)c2ccc(CNC(=O)CCCCc3ccc(I)cc3)cc2)C(=O)O)C(=O)O)cc1 [[^177Lu]Lu-6R-RedFol-25, metal not drawn]",17 ± 3,29 ± 8,0.5,96
CN1c2c(nc(N)[nH]c2=O)NCC1CNc1ccc(C(=O)NC(CCC(=O)NC(CCCCNC(=O)CN2CCN(CC(=O)[O-])CCN(CC(=O)[O-])CCN(CC(=O)[O-])CC2)C(=O)NC(CCCCNC(=O)c2ccc(CNC(=O)CCCc3ccc(I)cc3)cc2)C(=O)O)C(=O)O)cc1.[177Lu+3] (stereo not drawn) [[^177Lu]Lu-6S-RedFol-3],23 ± 8,44 ± 11,1.1,97
